Laboratory results reported in article PMC5564622 (Oncotarget, 2017).
Where two headings read alike, the source gives them in different places.

How the values were obtained:
[1] = test system: LoVo/ADR cells (ABCB1-overexpressing); assay: cells; settings: Homo sapiens
Procedure: (§1) The human colon cancer cell lines LoVo, HCT8, Caco-2 were obtained from the Cell Bank of the Chinese Academy of Sciences. DOX-selected ABCB1-overexpression LoVo/ADR, HCT8/ADR, Caco-2/ADR cell lines were purchased from Shanghai Yan Sheng Industrial Co., LTD. […] All the DOX-selected ABCB1-overexpression cells were seeded in a medium containing 1μM of DOX to maintain their drug resistance phenotype.

HCT8/pcDNA3.1 cells = assay: cells; format: cell-based, human
Procedure: (§2) HCT8/pcDNA3.1 and HCT8/ABCB1 cells were established by transfecting HCT8 with empty pcDNA3.1 or vector containing the full length ABCB1, and were cultured in medium with 2 mg/ml G418.

[2] = test system: HCT8/ADR cells (ABCB1-overexpressing); assay: cells; settings: Homo sapiens
Procedure: as §1

LoVo cells = assay: cells; format: cell-based, human
Procedure: as §1

HCT8 cells = assay: cells; format: cell-based, human
Procedure: as §1

[3] = test system: HCT8/ABCB1 cells (ABCB1-transfected); assay: cells; settings: Homo sapiens
Procedure: as §2

[4] = test system: HCT8/ADR cells (ABCB1-overexpressing)
Procedure: as §1

[5] = test system: HCT8/ABCB1 cells (ABCB1-transfected)
Procedure: as §2

[6] = test system: LoVo/ADR cells (ABCB1-overexpressing)
Procedure: as §1

MDR in colon cancer = assay: Preliminary experiment on Chansu ingredients and MDR; format: cell-based; settings: six active ingredients of Chansu
[7] = test system: LoVo/ADR, HCT8/ADR, HCT8/ABCB1 and Caco-2/ADR cells and parental cells; assay: CCK-8 cytotoxicity of BU (non-toxic concentrations); format: cell-based, human; settings: MDR and parental cells
HCT8/ADR xenografts = assay: HCT8/ADR nude mouse xenograft model; settings: for tumor size versus saline: q3d×5, alone
[8] = Toxicity analysis in xenograft mice; format: in vivo, athymic nude mice (BALB/c-nu/nu)
Procedure: Normal tissues (heart, liver, lung, spleen, kidney, intestine) were harvested for H&E histology studies. Venous blood samples were collected in EDTA-coated tubes for hematology studies. Samples were analyzed for white blood cells (WBC), red blood cells (RBC), platelets (PLT), aspartate aminotransferase (AST), alanine aminotransferase (ALT) and blood urea nitrogen (BUN) in the clinical laboratory at our hospital.

ABCB1 = assay: ABCB1-mediated drug transport assay (Caco-2 monolayer); settings: human
Procedure: Caco-2 cells were seeded on a Costar 12-well Transwell Permeable Supports plates (0.4 μm pore size, 1.13 cm^2 of growth area, 12 mm diameter) at a density of 5.0×10^4cells/cm^2. Replaced the medium every other day and incubate plates at 37°C for 21 days. Transepithelial electrical resistance (TEER) and Lucifer yellow permeability (LY%) was measured to evaluate the integrity of the monolayer. […] Cells were washed 3 times with HBSS buffer and preincubated for 15 min. Test drugs were diluted in HBSS with 0.5 ml added to the apical side (A) or 1.5 ml to the basolateral side (B). […] Analyte concentrations were determined by Thermo Varioskan Flash.
The apparent permeability coefficient (Papp) was determined for both A to B and B to A directions by the following formula: Papp=dC/dt×V/AC0 in which A is the area of filter membrane, C0 represents the initial concentration of drug, dC/dt is the change of concentration of drug in the period of incubation time, and V is the volume of the receiver chamber. The efflux ratio (ER) was calculated from: ER=Papp(B to A)/Papp (A to B)

[9] = Homo sapiens, HCT-8, read-out: IC50 of MIT
[10] = Homo sapiens, HCT-8, 48 h, read-out: IC50 of DOX
[11] = HCT-8, 48 h, read-out: IC50 of DOX

Question: What does the source list for O=C1c2c(O)ccc(O)c2C(=O)c2c(NCCNCCO)ccc(NCCNCCO)c21 [MIT, mitoxantrone]?
Answer: IC50 ([1]; read-out: IC50 of MIT): 1.23 ± 0.08 µM; IC50 (HCT8/pcDNA3.1 cells; [9]): 0.88 ± 0.28 µM; IC50 ([2]; HCT-8, read-out: IC50 of MIT): 1.02 ± 0.28 µM; IC50 (LoVo cells; Homo sapiens, read-out: IC50 of MIT): 1.05 ± 0.09 µM; IC50 (HCT8 cells; [9]): 0.85 ± 0.15 µM; IC50 ([3]; HCT-8, read-out: IC50 of MIT): 1 ± 0.2 µM

Question: What does the source list for “5(6)-carboxy-2′,7′-dichlorofluorescein [CDCF]”?
Answer: IC50 ([4]; read-out: IC50 of CDCF, HCT8/ADR, CDCF alone): 960 ± 160 µM; IC50 ([5]; read-out: IC50 of CDCF, HCT8/ABCB1, CDCF alone): 1080 ± 140 µM; IC50 (HCT8/pcDNA3.1 cells; HCT8/pcDNA3.1, CDCF alone, read-out: IC50 of CDCF): 910 ± 180 µM; IC50 (LoVo cells; CDCF alone, read-out: IC50 of CDCF): 1020 ± 110 µM; IC50 (HCT8 cells; HCT8, CDCF alone, read-out: IC50 of CDCF): 700 ± 100 µM; IC50 ([6]; read-out: IC50 of CDCF, LoVo/ADR, CDCF alone): 1130 ± 50 µM

Question: For CC(=O)O[C@H]1[C@H]2O[C@]23[C@@H]2CC[C@@H]4C[C@@H](O)CC[C@]4(C)[C@H]2CC[C@]3(C)[C@H]1c1ccc(=O)oc1 [cinobufagin], which “effect on MDR” value (MDR in colon cancer) is on record?
Answer: could effectively reverse MDR

Question: With C[C@]12CC[C@H](O)C[C@H]1CC[C@@H]1[C@@H]2CC[C@]2(C)[C@@H](c3ccc(=O)oc3)CC[C@]12O [BU, Bufalin] as the compound, how does the “non-toxic concentration (survival rate higher than 80%), maximum for reversal assays” value [7] read?
Answer: up to 20 nM

Question: And the “tumor size versus saline” value (HCT8/ADR xenografts; BU 0.1 mg/kg, i.p.)?
Answer: No significant difference

Question: And the “ABCB1 expression in tumor tissue (IHC)” value (HCT8/ADR xenografts; HCT8/ADR xenografts, BU 0.1 mg/kg)?
Answer: inhibit ABCB1 expression in vivo

Question: What about the “effect on MDR” value (MDR in colon cancer) of the same compound?
Answer: could effectively reverse MDR

Question: And the toxicity on mice ([8]; BU 0.1mg/kg)?
Answer: did not induce any toxicity

Question: What does the source list for COc1cccc2c1C(=O)c1c(O)c3c(c(O)c1C2=O)C[C@@](O)(C(=O)CO)C[C@@H]3O[C@H]1C[C@H](N)[C@H](O)[C@H](C)O1 [DOX, doxorubicin]?
Answer: tumor size versus saline (HCT8/ADR xenografts; DOX 0.1 mg/kg, i.p.): No significant difference; tumor growth inhibition (HCT8/ADR xenografts; DOX 0.1, 0.5, 1.0 mg/kg, i.p., q3d×5): inhibit tumor growth with a concentration-dependent pattern; IC50 ([1]; 48 h, read-out: IC50 of DOX): 16.3 ± 0.54 µM; fold-reversal of MDR [4]: 7.20 ± 0.80 (1.00); fold-reversal of MDR [5]: 13.35 ± 1.15 (1.00); fold-reversal of MDR (HCT8/pcDNA3.1 cells; HCT8/pcDNA3.1, DOX alone (reference)): 1.00; IC50 (HCT8/pcDNA3.1 cells; [10]): 0.67 ± 0.12 µM; IC50 [2, 11]: 7.2 ± 0.8 µM; fold-reversal of MDR (LoVo cells; DOX alone (reference)): 1.00; IC50 (LoVo cells; Homo sapiens, 48 h, read-out: IC50 of DOX): 1.87 ± 0.15 µM; significant toxicity: deaths ([8]; DOX 0.5 mg/kg and DOX 1.0 mg/kg groups, with weight loss): 2 deaths out of 6 mice; alanine transaminase (ALT) and aspartate transaminase (AST) ([8]; high concentration DOX (0.5, 1.0 mg/kg)): significantly elevated; fold-reversal of MDR (HCT8 cells; HCT8, DOX alone (reference)): 1.00; IC50 (HCT8 cells; [10]): 0.55 ± 0.14 µM; Papp A→B at 120 min, 20 μM (ABCB1): 0.68 ± 0.18 ×10⁻⁶ cm/s; Papp B→A at 120 min, 20 μM (ABCB1): 3.91 ± 0.68 ×10⁻⁶ cm/s; efflux ratio at 120 min, 20 μM (ABCB1): 5.75; IC50 [3, 11]: 13.3 ± 1.15 µM; fold-reversal of MDR [6]: 16.28 ± 0.54 (1.00)
